From patent publication US8153589B2, “JNK3 as a target for the treatment of angiogenesis-related diseases” (The University of North Carolina at Chapel Hill, priority 2009, dated 2012)

What was measured:
Type in all cases: cell-based, bovine
BAECs [1] = assay: Scratch wound healing assay; settings: 50 ng/ml SDF-1alpha, no inhibitor
Description: For detection of cell migration, a wound healing assay was performed as previously described (40). BAECs were grown on 35 mm wells, the monolayer was scratched with a sterile disposable rubber policeman and the edge labeled with a traced line. After injury, the cells were gently washed with normal media without serum. EC migration from the edge of the injured monolayer was quantified by measuring the area between the wound edges before and the recovered area after injury using light microscopy (Eclipse TS100, 4× objective, Nikon) and the computer program ImageJ.
To determine whether eNOS activation is required for SDF-1α-mediated endothelial cell migration, we performed scratch-wound healing and Boyden chamber migration assays in the presence of the NOS-specific inhibitor L-NMMA (19). Confluent BAECs were pretreated for one hour with 1 mM or 5 mM L-NMMA or vehicle prior to each assay. […] Similarly, cell migration in Boyden chambers was induced by SDF-1α (from 8±3 to 86±5 cells per field), but this increase in migration was inhibited by the pre-incubation of BAECs with L-NMMA (FIG. 1D). The involvement of eNOS in SDF-1α-induced endothelial cell migration was confirmed by treatment of cells with siRNAs specific for eNOS. […]

BAECs [2] = assay: Boyden chamber migration assay
Description: Boyden chamber assays were performed as previously described (40, 41) using a 48-well chamber apparatus (NeuroProbe, Cabin John, Md.). The lower chambers of the apparatus were filled with DMEM with or without SDF-1alpha and then covered with the collagen-coated filter and the upper chambers. Cells pretreated with or without the indicated inhibitors were then added to the upper chambers. After incubating for 6 h at 37° C., cells present on the lower surface were fixed, stained and identified with the 40× objective lens on a Nikon Eclipse TS 100 inverted microscope.
To determine whether eNOS activation is required for SDF-1α-mediated endothelial cell migration, we performed scratch-wound healing and Boyden chamber migration assays in the presence of the NOS-specific inhibitor L-NMMA (19). Confluent BAECs were pretreated for one hour with 1 mM or 5 mM L-NMMA or vehicle prior to each assay. […] Endothelial cells were transfected with 1 of 3 different bovine eNOS-specific siRNAs, or mixture of all three, and 72 hours later cell lysates were examined by western blot analysis for levels of eNOS protein.

BAECs [3] = assay: In vitro Matrigel angiogenesis (tube formation) assay; settings: 50 ng/ml SDF-1α, control siRNA cells
Description: Endothelial cell tube formation was analyzed with the Matrigel-based tube formation assay (40, 41). Chilled 24-well plates were coated with growth factor-reduced Matrigel (Becton Dickinson, San Jose, Calif.) that was polymerized at 37° C. for 30 min. BAECs were transfected with siRNA constructs with the Amaxa Nucleofector electroporation reagent. Three days later, cells were trypsinized, and plated at equal numbers into each Matrigel-coated well. After 18 hours of incubation in the absence or presence of SDF-1alpha, the formation of tubes was photographed (Eclipse, 10× objective, TS100Nikon). Images were quantified with ImageJ.
Endothelial cell migration is a critical step for tube formation during angiogenesis. To test the importance of JNK3 in highly ordered cell assembly processes, we examined the effect of JNK knockdown with siRNAs on the formation of capillary-like tubes in Matrigel. BAECs were transfected with JNK1 siRNA, JNK2 siRNA, JNK3 siRNA or control siRNA. After 72 hours, cells were plated on Matrigel in medium containing 50 ng/ml SDF-1α.

Substance: SDF-1α
- BAEC migration towards the wounded area (BAECs [1]): 56.0±12.0%
- cell migration in Boyden chambers (BAECs [2]; 50 ng/ml SDF-1alpha, no inhibitor (FIG. 1D)): 86±5 cells per field
- endothelial cell migration (BAECs [2]; control-transfected BAECs, 50 ng/ml SDF-1alpha (FIG. 4F)): 125±9 cells/field
- tube length (BAECs [3]): 605±106 μm
